# Measured values reported in patent publication US20250340543A1, “GPR84 ANTAGONISTS AND USES THEREOF” (Liminal BioSciences Limited, priority 2021, published 2025).
# Biological target: GPR84 (Homo sapiens (Human), UniProt Q9NQS5)
# Assay: Gai biosensor BRET assay (GPR84-mediated activation of Gai, antagonist mode against agonist ZQ-16)
# Type: cell-based
# Conditions: HEK293 cells, 200 nmol/L GPR84 agonist ZQ-16, read-out: hGPR84 IC50
# Outline: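 Transiently transfected HEK293 cells expressing GPR84, Gαi2-Rluc8, GFP10-Gγ2 and Gβ1, in Tyrode's buffer pH 7.5. Compounds pre-incubated 5 min at 37° C, then 200 nmol/L ZQ-16 for 5 min at room temperature; BRET² with coelenterazine 400A, ligand-promoted net BRET after background and vehicle subtraction.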
# Chain of GPR84 (Q9NQS5 whole entry): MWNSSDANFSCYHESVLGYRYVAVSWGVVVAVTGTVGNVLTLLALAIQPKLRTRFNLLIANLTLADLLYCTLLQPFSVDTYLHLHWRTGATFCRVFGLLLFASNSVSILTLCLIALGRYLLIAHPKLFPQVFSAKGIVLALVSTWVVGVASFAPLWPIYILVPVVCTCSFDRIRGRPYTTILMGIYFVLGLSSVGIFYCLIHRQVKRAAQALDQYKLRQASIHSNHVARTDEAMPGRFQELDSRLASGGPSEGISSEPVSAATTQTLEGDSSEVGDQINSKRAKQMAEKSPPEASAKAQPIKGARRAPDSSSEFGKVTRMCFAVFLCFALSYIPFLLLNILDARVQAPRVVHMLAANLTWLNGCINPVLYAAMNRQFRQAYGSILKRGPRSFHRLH
row,SMILES,IC50
1,O=C(CC1CCOCC1)N1CCc2cc(C#CC3CC3)ccc2C1 [Compound I-181],> 25 µM
2,Cc1cc(OCc2ncco2)cc(=O)n1[C@H](C)c1ccc(C#CC2CC2)cc1 [Compound I-296],< 5 µM
3,Cc1cc(NC(=O)c2ncccn2)cc(=O)n1[C@H](C)c1ccc(C#CC2CC2)cc1 [Compound I-360],< 5 µM
4,Cc1ccc(-c2ccc3c(c2)OCCn2c-3cc(OCC3COCCO3)nc2=O)cn1 (centres unmarked) [Compound I-211],5 to 10 µM
5,Cc1cc(OCc2cccnn2)cc(=O)n1[C@H](C)c1ccc(C#CC2CC2)cc1 [Compound I-291],< 5 µM
6,Cc1cc(OCc2cncnc2)cc(=O)n1C(C)c1ccc(C#CC2CC2)c(F)c1 (centres unmarked) [Compound I-364],< 5 µM
7,Cc1cc(OCc2cn(C)nn2)cc(=O)n1[C@H](C)c1ccc(C#CC2CC2)cc1 [Compound I-357],< 5 µM
8,Cc1cc(OCc2nccn2C)cc(=O)n1[C@H](C)c1ccc(C#CC2CC2)cc1 [Compound I-303],< 5 µM
9,Cc1cc(OCc2cnccc2Cl)cc(=O)n1[C@H](C)c1ccc(C#CC2CC2)cc1 [Compound I-315],< 5 µM

# The remaining lines, values ahead:
row,IC50,SMILES
1,< 5 µM,Cc1cc(OC[C@@H]2CCCOC2)cc(=O)n1[C@H](C)c1ccc(C#CC2CC2)cc1 [Compound I-232]
2,< 5 µM,Cc1cc(OCC2COCCO2)cc(=O)n1Cc1ccc(C#CC2CC2)cc1 (centres unmarked) [Compound I-35]
3,< 5 µM,Cc1cc(OC[C@@H]2COCCO2)cc(=O)n1[C@H](C)c1ccc(C#CC2CC2)cc1 [Compound I-396]

# Same assay, conditions: compound tested at 2 μM (concentration code A)
row,inhibition at 2 µM,SMILES
1,< 25%,Cc1cc(OCc2ncccn2)cc(=O)n1C(C)c1ccc2cc(C3CC3)ccc2c1 (centres unmarked) [Compound I-354]
2,> 75%,Cc1cc(OCc2cncn2C)cc(=O)n1[C@H](C)c1ccc(C#CC2CC2)cc1 [Compound I-349]
3,> 75%,Cc1cc(OCc2cccnn2)cc(=O)n1[C@H](C)c1ccc(C#CC2CC2)cc1 [Compound I-291]
4,< 25%,Cc1c(C#CC2CC2)cccc1Cn1c(C)cc(OCc2ncccn2)cc1=O [Compound I-241]
5,> 75%,Cc1cc(OCc2cn(C)nn2)cc(=O)n1[C@H](C)c1ccc(C#CC2CC2)cc1 [Compound I-357]
6,> 75%,Cc1cc(OCc2nccn2C)cc(=O)n1[C@H](C)c1ccc(C#CC2CC2)cc1 [Compound I-303]
7,> 75%,Cc1cc(OCc2cnccc2Cl)cc(=O)n1[C@H](C)c1ccc(C#CC2CC2)cc1 [Compound I-315]

# Same assay, conditions: compound tested at 5 μM (concentration code C)
row,inhibition at 5 µM,SMILES
1,< 25%,COc1cc(OCC2COc3cccnc3O2)cc(-c2ccc(-c3ccc(C)nc3)cc2C)n1 (centres unmarked) [Compound I-64]
2,< 25%,COc1cc(OCC2COCCO2)cc(-c2ccc(OCC(F)(F)F)cc2)c1 (centres unmarked) [Compound I-166]

# Same assay, conditions: compound tested at 10 μM (concentration code D)
row,SMILES,inhibition at 10 µM
1,Cc1cc(OCc2ncccn2)cc(=O)n1-c1cccc(C#CC2CC2)c1 [Compound I-245],< 25%
2,Cc1cc(OCc2cccnc2Cl)cc(=O)n1[C@H](C)c1ccc(C#CC2CC2)cc1 [Compound I-305],> 75%
3,Cc1cc(OCC(F)(F)F)ccc1-c1cncc(OCC2CCCCO2)c1 (centres unmarked) [Compound I-56],25 to 50%
4,Cc1cc(OCc2cnn(C)c2)cc(=O)n1[C@H](C)c1ccc(C#CC2CC2)cc1 [Compound I-352],> 75%
5,Cc1cc(OCC2CCOCC2)cc(=O)n1[C@H](C)c1ccc(N2CC(C)(C)C2)cc1 (stereo in doubt) [Compound I-148],25 to 50%
6,Cc1cc(OCc2ncccn2)cc(=O)n1Cc1ccc(N2CC(C)(C)C2)cc1 [Compound I-242],< 25%
7,Cc1cc(OCc2ncccn2)cc(=O)n1Cc1cccc(OCC(F)(F)F)c1 [Compound I-262],< 25%
8,Cc1cc(OCc2cc(Cl)ccn2)cc(=O)n1[C@H](C)c1ccc(C#CC2CC2)cc1 [Compound I-306],25 to 50%
9,Cc1cc(OCc2c(F)ccc[n+]2[O-])cc(=O)n1[C@H](C)c1ccc(C#CC2CC2)cc1 [Compound I-369],> 75%
10,Cc1cc(OCc2ncccn2)cc(=O)n1[C@H](C)c1ccc(C#CCN(C)Cc2ccccc2)cc1 [Compound I-264],25 to 50%
11,Cc1cc(OCc2ncco2)cc(=O)n1[C@H](C)c1ccc(C#CC2CC2)cc1 [Compound I-296],> 75%
12,Cc1cc(OCc2ncccn2)cc(=O)n1[C@H](C)c1ccc(C#CC(C)C)cc1 [Compound I-298],50 to 75%
13,Cc1cc(NC(=O)c2ncccn2)cc(=O)n1[C@H](C)c1ccc(C#CC2CC2)cc1 [Compound I-360],> 75%
14,Cc1cc(OCc2ncco2)cc(=O)n1C(C)c1ccc(C#CC2CC2)c(F)c1 (centres unmarked) [Compound I-365],> 75%
15,Cc1cc(OCc2cncnc2)cc(=O)n1C(C)c1ccc(C#CC2CC2)c(F)c1 (centres unmarked) [Compound I-364],> 75%
16,Cc1cc(OCc2ncccn2)cc(=O)n1C(C)c1cccc(C#CC2CC2)c1 (centres unmarked) [Compound I-261],< 25%
17,Cc1cc(OCc2ncccn2)cc(=O)n1[C@H](C)c1ccc(C#CC2CC2)cc1F [Compound I-270],< 25%
18,Cc1cc(OCc2ncccn2)cc(=O)n1[C@H](C)c1ccc(-c2ccccc2)cc1 [Compound I-344],< 25%
19,CNC(=O)c1ccc([C@@H](C)n2c(C)cc(OCc3ncccn3)cc2=O)cc1 [Compound I-316],< 25%
20,Cc1cc(OCc2ncccn2)cc(=O)n1[C@@H](C)c1ccc(C#CC2CC2)cc1 [Compound I-236],< 25%
21,Cc1cc(OCc2ncccn2)cc(=O)n1[C@H](C)c1ccc(C#CCN2CC(C)(C)C2)cc1 [Compound I-259],< 25%
22,Cc1cc(OCC2COCCO2)cc(=O)n1Cc1cccc(OCc2ccccc2)c1 (centres unmarked) [Compound I-82],< 25%
23,Cc1cc(OCc2ncccn2)cc(=O)n1[C@@H](C)Cc1ccc(C#CC2CC2)cc1 (stereo in doubt) [Compound I-277],< 25%
24,Cc1cc(OCc2ncc[nH]2)cc(=O)n1[C@H](C)c1ccc(C#CC2CC2)cc1 [Compound I-355],25 to 50%
25,Cc1cc(OCc2ncc(Cl)cn2)cc(=O)n1[C@H](C)c1ccc(C#CC2CC2)cc1 [Compound I-260],> 75%

# Next, values leading:
row,inhibition at 10 µM,SMILES
1,50 to 75%,Cc1cc(OCC2CCOCC2)cc(=O)n1[C@H](C)c1ccc(C#CC2CC2)cc1 (stereo in doubt) [Compound I-20]
2,25 to 50%,Cc1cc(OCC2COCCO2)cc(=O)n1C(C)c1cc(C#CC2CC2)cs1 (centres unmarked) [Compound I-221]
3,25 to 50%,Cc1cc(OC[C@@H]2COCCO2)cc(=O)n1Cc1cccc(C#CC2CC2)c1 [Compound I-233]
4,< 25%,Cc1cc(OCC2COCCO2)cc(=O)n1C(C)c1ccc(C#CC2CC2)cn1 (centres unmarked) [Compound I-76]
5,> 75%,Cc1cc(OC[C@@H]2COCCO2)cc(=O)n1[C@H](C)c1ccc(C#CC2CC2)cc1 [Compound I-6]
6,> 75%,Cc1cc(OC[C@@H]2CCCOC2)cc(=O)n1[C@H](C)c1ccc(C#CC2CC2)cc1 [Compound I-232]
7,25 to 50%,Cc1cc(OC[C@H]2COCCO2)cc(=O)n1[C@@H](C)c1ccc(C#CC2CC2)cc1 [Compound I-44]
8,< 25%,Cc1cc(C#CC2CC2)ccc1C(C)n1c(C)cc(OCC2COCCO2)cc1=O (centres unmarked) [Compound I-100]
9,< 25%,Cc1ccc(C#CC2CC2)cc1Cn1c(C)cc(OCC2COCCO2)cc1=O (centres unmarked) [Compound I-115]
10,25 to 50%,COc1ccc([C@@H](C)n2c(C)cc(OCC3COCCO3)cc2=O)cc1 (some centres unmarked) [Compound I-218]
11,25 to 50%,CCc1cc(OCC2COCCO2)cc(=O)n1C(C)c1ccc(C#CC2CC2)cc1 (centres unmarked) [Compound I-50]

# Same assay, conditions: compound tested at 15 μM (concentration code F)
row,inhibition at 15 µM,SMILES
1,< 25%,Cc1cc(OCC2COCCO2)nc(OCc2ccc(C#CC3CC3)cc2)n1 (centres unmarked) [Compound I-85]
2,25 to 50%,O=C(CC1CCOCC1)N1CCc2cc(C#CC3CC3)ccc2C1 [Compound I-181]

# Same assay, conditions: compound tested at 25 μM (concentration code G)
row,SMILES,inhibition at 25 µM
1,FC(F)(F)COc1ccc(-c2cccc(OCC3CCCCO3)n2)cc1 (centres unmarked) [Compound I-129],< 25%
2,O=c1nc(OCC2COCCO2)cc2n1CCOc1cc(Cl)ccc1-2 (centres unmarked) [Compound I-206],25 to 50%
3,COc1cc(OCC2COCCO2)cc(-c2c(C)cc(OCc3ccccc3)cc2C)n1 (centres unmarked) [Compound I-125],< 25%
4,FC(F)(F)COc1cccc(-c2cccc(OCC3COCCO3)n2)c1 (centres unmarked) [Compound I-111],< 25%
5,COc1cc(OCC2CCCOC2)cc(-c2ccc(-c3ccc(C)nc3)cc2C)n1 (centres unmarked) [Compound I-45],25 to 50%
6,Cc1ccc(-c2ccc3c(c2)OCCn2c-3cc(OCC3COCCO3)nc2=O)cn1 (centres unmarked) [Compound I-211],25 to 50%
7,FC(F)(F)COc1ccc(-c2nc(OCC3COCCO3)cc3c2OCCC3)cc1 (centres unmarked) [Compound I-160],< 25%
8,COc1nc(OCC2COCCO2)cc(-c2ccc(OCC(F)(F)F)cc2)n1 (centres unmarked) [Compound I-110],< 25%

# Next, values leading:
row,inhibition at 25 µM,SMILES
1,< 25%,C(#CC1CC1)c1ccc(-c2nccc(OCC3CCCCO3)n2)cc1 (centres unmarked) [Compound I-127]
2,< 25%,C(#CC1CC1)c1ccc(-c2ccnc(OCC3CCCCO3)n2)cc1 (centres unmarked) [Compound I-128]
3,< 25%,C(#CC1CC1)c1ccc(-c2cc(OCC3CCCCO3)cnn2)cc1 (centres unmarked) [Compound I-135]
4,< 25%,Cc1cc(C#CC2CC2)ccc1Cn1c(C)cc(OCC2COCCO2)cc1=O (centres unmarked) [Compound I-101]
5,< 25%,O=c1nc(OCC2COCCO2)cc(-c2ccc(OCC(F)(F)F)cc2)[nH]1 (centres unmarked) [Compound I-10]
6,< 25%,COc1cc(OCC2COCCO2)cc(-c2ccc(C#CC3CC3)cc2C)n1 (centres unmarked) [Compound I-90]
7,< 25%,COc1cc(OCC2COCCO2)cc(-c2cc(C#CC3CC3)ccc2C)n1 (centres unmarked) [Compound I-70]
8,< 25%,Cn1c(-c2ccc(C#CC3CC3)cc2)cc(OCC2COCCO2)cc1=O (centres unmarked) [Compound I-67]
9,< 25%,COc1cc(OCC2COCCO2)cc(-c2ccc(C#CCNc3ccccc3)cc2)n1 (centres unmarked) [Compound I-130]
10,< 25%,FC(F)(F)COc1ccc(-c2cc(OCC3COCCO3)cc3c2OCCO3)cc1 (centres unmarked) [Compound I-155]
11,< 25%,"O=c1ncc(-c2ccc(C#CC3CC3)cc2)cn1C[C@H]1CCCCO1 (stereo in doubt) [Compound I-80, 5-(4-(cyclopropylethynyl)phenyl)-1-((tetrahydro-2H-pyran-2-yl)methyl)pyrimidin-2(1H)-one]"
12,< 25%,COc1nc(OCC2COCCO2)cc(-c2ccc(C#CC3CC3)cc2)n1 (centres unmarked) [Compound I-29]
13,< 25%,FC(F)(F)COc1ccc(-c2cc(OCC3COCCO3)cc(C3COC3)c2)cc1 (centres unmarked) [Compound I-163]
14,25 to 50%,Cc1cc(OCC2COCCO2)cc(=O)n1Cc1ccc(C#CC2CC2)cc1 (centres unmarked) [Compound I-35]
15,< 25%,O=c1cc(OCC2COCCO2)cc(-c2ccc(C#CC3CC3)cc2)[nH]1 (centres unmarked) [Compound I-8]
16,< 25%,CC(C)c1cc(OCC2COCCO2)cc(OCc2ccc(C#CC3CC3)cc2)n1 (centres unmarked) [Compound I-55]
